One series deals with T1, human PD-L1 (Homo sapiens, UniProt Q9NZQ7).
T1 construct: expressed in transfected cells; host or cells: PC3 cells (human prostate carcinoma) transduced to overexpress human PD-L1
Briefly: Competition binding assay against [^64Cu]Cu-1 on PC3 PD-L1 overexpressing cells. The note with it: against [^64Cu]Cu-1 (30 nM), 14 dilutions 1 µM–120 pM, n = 2 from triplicates, read-out: Ki (inhibitory constant from competition binding assay). As for the experimental part:
Prior to competition binding experiments, cells were detached with 0.05% Trypsin–EDTA (Gibco, USA), trypsinized and counted (CASY1 cell counter, Schaerfe System, Reutlingen, Germany). Cells were then diluted in medium to ~ 320,000 cells/mL and seeded to 48 well plates (Falcon Multiwell #353078, ThermoFisher, Karlsruhe, Germany) for at least one day.
For the determination of inhibitory constant (Ki), competition binding experiments were conducted in a minimum of two independent experiments, with each data point formed from triplicates. For this purpose, all described compounds competed with a previously reported biphenyl-based PD-L1 small molecule radioligand (Krutzek et al. [2023b]).
Human PD-L1 transduced PC3 cells were grown under conditions described above. For the experiments, plates were allowed to reach room temperature followed by cooling on ice (each 15 min). 200 µL of assay buffer (PBS) replaced the culture. For each compound, total binding (TB) of the radioligand was determined, along with […] of BMS-1166 (synthesized according to reference (Guzik et al. [2017]) (dissolved in DMSO, resulting in 0.03% v/v) for estimation of nonspecific binding (NSB).
Incubation for 90 min followed, wells were then washed with ice-cold assay buffer (3 washes) and cells subjected to lysis (500 µL of 0.1 M NaOH + 1% SDS). The radioactivity of 400 µL lysate was assessed via a gamma counter (Perkin Elmer Wizard 1480). Binding to polystyrene was determined on an extra plate without any cells under identical conditions. Activity and therefore concentration of the radioligand stock solution was confirmed via 50 µL samples. Data was corrected for radioactive decay to a reference time (end of radiolabeling). The protein content of lysates from a control plate (seeded from the same cell suspension, incubated under identical conditions) was quantified using a BCA assay, and the mean value (µg/mL) was employed for this specific dataset. Via mean protein content and molar activity, final values (pmol/mg protein) were computed from the CPM measurements. Ki was fitted via a One site model (GraphPad Prism 10), using the previously determined KD for the radiolabeled compound and the actual concentration of the radioligand.

Series [1] is described as follows: Proteolytic stability in human serum, radio-HPLC. The format is in vitro ADME. To be noted: 37 °C, all time points up to 4 h. As for the experimental part: With both ^18F-ligands in hand, distribution coefficients (log D7.4) were determined using the shake flask method with n-octanol and PBS. The introduction of three hydrophilizing units led to log D7.4 values of − 2.54 ± 0.02 for [^18F]F-2 and − 2.68 ± 0.08 for [^18F]F-3, which indicates moderate hydrophilicity. Subsequently, proteolytic stability was investigated (Supplementary Fig. S68 and S69), by incubating in human serum at 37 °C for up to 4 h. Before incubation (0 h) and 0.5, 1, 2 and 4 h after incubation, an aliquot was taken, and serum proteins were precipitated. Analysis of radiotracers was performed with radio-HPLC, showing the intact radiotracers (0 h) at 7.0 ([^18F]F-2) and 7.7 min ([^18F]F-3). At all time points, radiotracers remained intact up to 99%.
Subsequently, proteolytic stability was investigated (Supplementary Fig. S70 and S71), by incubating in human serum at 37 °C for up to 4 h. Before incubation (0 h) and 0.5, 1, 2 and 4 h after incubation, an aliquot was taken, and serum proteins were precipitated. Analysis of radiotracers was performed with radio-HPLC, showing the intact radiotracers (0 h) at 7.9 (Al[^18F]F-36) and 8.1 min (Al[^18F]F-37). After 4 h, both radiotracers remained intact up to 91% and 92%, respectively.
For proteolytic stability studies, a solution of the radiolabeled compound was diluted with human serum in a ratio of 1:10. […]

In series [2] the test system is NMRI-nude mice bearing PC3 PD-L1 and PC3 mock tumors. As to the kind of experiment: Small animal PET in mice bearing PC3 PD-L1 and PC3 mock tumors. The format is in vivo. To be noted: for SUVmax PC3 PD-L1 tumor / SUVmax PC3 mock tumor / Uptake (SUVmean) Bone (spine) / Uptake (SUVmean) Gall bladder / Uptake (SUVmean) Heart / Uptake (SUVmean) Liver / Uptake (SUVmean) PC3 PD-L1 tumor / Uptake (SUVmean) PC3 mock tumor / Uptake (SUVmean) Small intestine: 1–2 h p.i.; for Uptake (SUVmean) Bone (spine) / Uptake (SUVmean) Gall bladder / Uptake (SUVmean) Heart / Uptake (SUVmean) Liver / Uptake (SUVmean) PC3 PD-L1 tumor / Uptake (SUVmean) PC3 mock tumor / Uptake (SUVmean) Small intestine: mean; for transition from liver and gall bladder into the intestine: time-activity curves. As for the experimental part: Male athymic NMRI-nude mice (Rj:NMRI-Foxn1nu, Charels River, Germany) aged 8 to 16 weeks were used to investigate pharmacokinetics and tumor uptake. For subcutaneous injection of cells, general anesthesia was induced with ~ 10% desflurane (Baxter, Deerfield, IL, USA) in 30 vol% oxygen + air at controlled 37 °C. Mice were injected with 3–5 × 10^6 PC3 PD-L1 and PC3 mock cells (in 50 µL PBS + 50 µL Matrigel, Corning, Glendale, CA, USA) into the right and left thigh, respectively. Tumor growth was monitored (3 times per week) using calipers, and animals enrolled in PET scans once tumors reached 7 mm.
Under general anesthesia, PET and X-ray computed tomography (CT) scans were conducted using a small animal PET/CT scanner (nanoScan PET/CT, Mediso, Budapest, Hungary), with four animals imaged simultaneously. CT images were used for attenuation correction and anatomical referencing.
The radiotracer candidates were diluted in 200–300 µL sterile 0.9% NaCl (and up to 2% EtOH, pH 6–7) and intravenously delivered over 30 s through a lateral tail vein catheter. PET acquisition (2 h p.i.) was started simultaneously with the administration. Injected activities were between 5 and 12 MBq (with molar activities 5–18 GBq/µmol). If animals were subjected to an additional scan later, the minimum time in between was > 3 days to allow decay and full metabolization.
The acquired three-dimensional list mode data were sorted and binned within a 400–600 keV energy window, forming 35 time frames (15 × 10 s, 5 × 30 s, 5 × 60 s, 4 × 300 s, 3 × 600 s, 3 × 1200 s). Reconstruction was performed with Mediso’s Tera-Tomo™ 3D algorithm, with a voxel size of 0.4 mm and corrections for decay, scatter, and attenuation. The images were subjected to post-processing and analysis using Rover software (ABX GmbH, Radeberg, Germany), and are shown as maximum intensity projections (MIPs) at the specified timepoint and scaling.
Three-dimensional volumes of interest were defined using fixed thresholding at 35–40% of the maximum measured intensity. Standardized uptake values (SUV = [MBq detected activity/mL tissue]/[MBq injected activity/g body weight], in mL/g) were then calculated within the selected volumes of interest, e.g. PD-L1 and mock tumors, as well as other relevant and metabolizing organs.

The target in a further series is T2, PC3 PD-L1 cells (Homo sapiens, UniProt Q9NZQ7).
T2 construct: expressed in transfected cells; host or cells: PC3 cells (human prostate carcinoma) transduced to overexpress human PD-L1
T2 sequence (Q9NZQ7 19-290): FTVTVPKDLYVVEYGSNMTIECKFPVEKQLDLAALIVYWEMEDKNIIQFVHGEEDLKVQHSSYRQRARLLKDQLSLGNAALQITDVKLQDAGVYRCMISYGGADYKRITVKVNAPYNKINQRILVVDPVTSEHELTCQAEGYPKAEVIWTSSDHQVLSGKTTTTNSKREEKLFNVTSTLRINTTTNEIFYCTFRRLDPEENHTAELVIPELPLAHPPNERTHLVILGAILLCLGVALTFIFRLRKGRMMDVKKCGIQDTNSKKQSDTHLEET
As to the kind of experiment: Real-time radioligand binding (LigandTracer) to PC3 PD-L1 cells. The note with it: room temperature. As for the experimental part:
The LigandTracer system (Ridgeview Instruments AB, Uppsala, Sweden) allows assessing the binding kinetics (association rate constant ka and dissociation rate constant kd) and therefore dissociation constant (KD) of radiolabeled compounds. For that purpose, target-positive PC3 PD-L1 cells are seeded to a quadrant of a petri dish (Thermo Scientific Nunclon Delta #150350). In our initial tests, 1.2x10^6 cells were seeded one day prior to the experiment.
The petri dish is then placed in the instrument, the culture medium removed and replaced with 3 mL CO2-independent medium (Gibco #18045088, ThermoFisher Germany). In the LigandTracer system, the dish rotates on an inclined base, with cells in medium (3 mL) located on one side (target), while no cells (background) are located on the other side. Radioactivity (counts per second) is then constantly measured for 30 seconds on either side. This allows continuous measurements of two (or more) alternating parts of the dish for bound radioactivity, with target – background indicating binding over time.
All experiments were performed at room temperature. Association of compounds was observed following incubation with two increasing concentrations of the tracer. The tracer-containing solution was then exchanged for fresh medium, to allow observation of dissociation for at least 120 min.

T1 sequence (Q9NZQ7 19-290): as above

One may read the Ki as the dissociation constant of the complex between target and ligand, obtained from inhibition or displacement. `Cc1c(COc2cc(OCc3cncc(S(C)(=O)=O)c3)c(CN(C)C(=O)[C@H](CS(=O)(=O)O)NC(=O)[C@H](CS(=O)(=O)O)NC(=O)CCP(=O)(O)O)cc2Cl)cccc1-c1cccc(OCc2cn([C@@H]3O[C@H](CF)[C@@H](O)[C@H](O)[C@H]3O)nn2)c1C` [Compound 2, (R)−3-((5-Chloro-4-((3'-((1-((2R,3R,4S,5S,6S)−6-(fluoromethyl)−3,4,5-trihydroxytetrahydro-2H-pyran-2-yl)−1H-1,2,3-triazol-4-yl)methoxy)−2,2'-dimethyl-[1,1'-biphenyl]−3-yl)methoxy)−2-((5-(methylsulfonyl)pyridin-3-yl)methoxy)benzyl)(methyl)amino)−3-oxo-2-((R)−2-(3-phosphonopropanamido)−3-sulfopropanamido)propane-1-sulfonic acid]: the Ki on human PD-L1 amounted to 0.189 µM.
For the compound `Cc1c(COc2cc(OCc3cncc(S(C)(=O)=O)c3)c(CN(C)C(=O)[C@H](CS(=O)(=O)O)NC(=O)[C@H](CS(=O)(=O)O)NC(=O)CCP(=O)(O)O)cc2Cl)cccc1-c1cccc(OCc2cn(CCOCCOCCF)nn2)c1C` [Compound 3, (R)−3-((5-Chloro-4-((3'-((1-(2-(2-(2-fluoroethoxy)ethoxy)ethyl)−1H-1,2,3-triazol-4-yl)methoxy)−2,2'-dimethyl-[1,1'-biphenyl]−3-yl)methoxy)−2-((5-(methylsulfonyl)pyridin-3-yl)methoxy)benzyl)(methyl)amino)−3-oxo-2-((R)−2-(3-phosphonopropanamido)−3-sulfopropanamido)propane-1-sulfonic acid], the inhibitory constant (Ki) at human PD-L1 came to 0.475 µM.
Regarding `Cc1c(COc2cc(OCc3cncc(S(C)(=O)=O)c3)c(CN(C)C(=O)[C@H](CS(=O)(=O)O)NC(=O)[C@H](CS(=O)(=O)O)NC(=O)CCP(=O)(O)O)cc2Cl)cccc1-c1cccc(OCc2cn([C@@H]3O[C@H](C[18F])[C@@H](O)[C@H](O)[C@H]3O)nn2)c1C` [[^18F]F-2], the radiotracer remaining intact result in series [1] is “up to 99%”. In addition, the Ki on human PD-L1 came out at 0.189 µM. Also, in series [2], the “bone uptake (sign of defluorination)” value is recorded as “lacked a discernible bone uptake”; the excretion route result is reported as “exclusively excreted via the hepatobiliary route”; the “target-specific tumor uptake, PC3 PD-L1 versus PC3 mock” value is given as “marked absence of target-specific uptake”; the “SUVmax PC3 PD-L1 tumor” value is 0.66. For the same compound, in series [2], the “SUVmax PC3 mock tumor” value is recorded as 0.77, the “Uptake (SUVmean) Bone (spine)” value is given as 0.25, the “Uptake (SUVmean) Gall bladder” value is given as 46.45 and the “Uptake (SUVmean) Heart” value was found to be 0.86. Moreover, in series [2], the “Uptake (SUVmean) Liver” value came to 1.61, the “Uptake (SUVmean) PC3 PD-L1 tumor” value turned out to be 0.34, the “Uptake (SUVmean) PC3 mock tumor” value turned out to be 0.39 and the “Uptake (SUVmean) Small intestine” value was 114.55. Besides, the “transition from liver and gall bladder into the intestine” value in series [2] lay within 10 to 15 min.
For `Cc1c(COc2cc(OCc3cncc(S(C)(=O)=O)c3)c(CN(C)C(=O)[C@H](CS(=O)(=O)O)NC(=O)[C@H](CS(=O)(=O)O)NC(=O)CCP(=O)(O)O)cc2Cl)cccc1-c1cccc(OCc2cn(CCOCCOCC[18F])nn2)c1C` [[^18F]F-3], the radiotracer remaining intact entry in series [1] is “up to 99%”. Also, the Ki at human PD-L1 was 0.475 µM. Besides, in series [2], the “bone uptake (sign of defluorination)” value is reported as “lacked a discernible bone uptake”; the excretion route result is “exclusively excreted via the hepatobiliary route”; the “target-specific tumor uptake, PC3 PD-L1 versus PC3 mock” value is “marked absence of target-specific uptake”; the “SUVmax PC3 PD-L1 tumor” value amounted to 0.30. For the same compound, in series [2], the “SUVmax PC3 mock tumor” value turned out to be 0.34, the “Uptake (SUVmean) Bone (spine)” value came out at 0.13, the “Uptake (SUVmean) Gall bladder” value is 150.54 and the “Uptake (SUVmean) Heart” value came out at 0.20. In series [2], the “Uptake (SUVmean) Liver” value is given as 0.70, the “Uptake (SUVmean) PC3 PD-L1 tumor” value came out at 0.17, the “Uptake (SUVmean) PC3 mock tumor” value is on record as 0.17 and the “Uptake (SUVmean) Small intestine” value is 105.54. Also, in series [2], the “transition from liver and gall bladder into the intestine” value was 10 to 15 min. Also, the “real-time radioligand binding, bound radioactivity over time” value at PC3 PD-L1 cells was “almost no binding takes place and no”.

(Values after PMC12214158, “Structure–activity relationship of ^18F-labeled PD-L1-targeting small molecule ligands: impact of radiolabeling strategy on affinity and in vivo performance” (EJNMMI Radiopharmacy and Chemistry, 2025).)
